US20240335462A1, “SULFUR/PHOSPHORUS-CONTAINING ARYL COMPOUND AND APPLICATION THEREOF” (MEDSHINE DISCOVERY INC., priority 2021, published 2024)
pIC50: −log10 of the molar value.

Key:
Format in all cases: cell-based
[1] = test system: TYK2 signaling pathway (IFN-α/pSTAT5); test: IFN-α-induced STAT phosphorylation in human whole blood
Experimental: (§1) The purpose of this experiment was to detect the inhibitory effect of the compound on the JAK-STAT signaling pathway activated by cytokines in human whole blood or platelet-rich plasma. Fresh human whole blood/platelets were placed in a 96-well plate. The test compound was added and incubated for 1 hour, followed by stimulation with various cytokines. The corresponding STAT phosphorylation levels in different cell populations were analyzed using flow cytometer by means of surface antibody staining and intracellular phosphorylated antibody staining. The experiments using the cytokines IFN-α, […] as stimulants were conducted in human whole blood, whereas the experiment using the cytokine TPO as a stimulant was conducted in platelet-rich plasma.
(§2) • a) Fresh blood from volunteers was collected using EDTA anticoagulant tubes. • b) 90 μL per well of whole blood was rapidly seeded into a 96-well plate and incubated in a cell culture incubator for 15 minutes. […] The plate was centrifuged at 500×g for 8 minutes, and the supernatant was discarded. • g) The cell pellet was washed once with pre-cooled PBS. • h) After discarding the supernatant, anti-human CD3 antibody was added thereto, followed by incubation at room temperature for 40 minutes. • i) The plate was centrifuged at 500×g for 8 minutes, then the supernatant was discarded, and the cells were washed twice with 200 μL of pre-cooled PBS. • j) The cells were resuspended in 200 μL of pre-cooled Perm Buffer III per well and permeabilized on ice for 60 minutes. • k) The plate was centrifuged at 600×g for 8 minutes, then the supernatant was discarded, and the cells were washed twice with pre-cooled PBS. • l) Intracellular staining with anti-pSTAT5 antibody was carried out, followed by incubation at room temperature for 60 minutes. • m) The cells were centrifuged at 600×g for 8 minutes, washed twice with PBS, resuspended in 200 μL of PBS, and detected using the CytoFlex S flow cytometer. • n) Data analysis was conducted using FlowJo and GraphPad Prism 8 software.
(§3) Data were analyzed using FlowJo software. […]

[2] = test system: JAK1/2 signaling pathway (IL-6/pSTAT3); test: IL-6-induced STAT phosphorylation in human whole blood
Experimental: as §1, §2, §3

[3] = test system: JAK1/3 signaling pathway (IL-2/pSTAT5); test: IL-2-induced STAT phosphorylation in human whole blood
Experimental: as §1, §2, §3

[4] = test system: JAK2/2 signaling pathway (GM-CSF/pSTAT5); test: GM-CSF-stimulated pSTAT5 in human PBMC (flow cytometry); settings: CD33-positive cells
Experimental: The purpose of this experiment was to detect the inhibitory effect of the compounds on cytokine-activated JAK-STAT signaling pathways in human peripheral blood mononuclear cells (PBMC).
• a) PBMCs frozen in liquid nitrogen were thawed in a 37° C. water bath, and culture medium was added. The mixture was then centrifuged at 320 g for 3 minutes. • b) Cells were resuspended in culture medium, counted, and the cell concentration was adjusted to 5×10^5 cells/mL with culture medium. Subsequently, the cell suspension was inoculated into […] 96-well round-bottom plates, with 200 μL per well. The plates were incubated at 37° C. with 5% CO2 for 90 minutes. • c) Different concentrations of the test compound (starting at 2 μM, 5-fold serial dilution, a total of 8 concentrations) were added, followed by incubation at 37° C. with 5% CO2 for 30 minutes. • d) IL-6 (final concentration at 20 ng/mL) was added to the first round-bottom plate and incubated at 37° C. with 5% CO2 for 15 minutes. • e) IFNα (final concentration at 1000 U/mL) was added to the second round-bottom plate and incubated at 37° C. with 5% CO2 for 15 minutes. • f) IL-2 (final concentration at 4 ng/mL) was added to the third round-bottom plate and incubated at 37° C. with 5% CO2 for 15 minutes. • g) GM-CSF (final concentration at […]) was added to the fourth round-bottom plate and incubated at 37° C. with 5% CO2 for 15 minutes. • h) Cells were centrifuged at 320 g for 3 minutes, and each well was washed once with 200 μL of staining solution. • i) 50 μL of staining solution containing human CD33 antibody was added to each well of the GM-CSF-stimulated culture plate, and 50 μL of staining solution containing CD4 antibody was added to the remaining three culture plates. The staining was performed at 4° C. for 30 minutes. The cells were washed twice with the staining solution. • j) 100 μL of fixation buffer was added to each well, and the cells were fixed at 4° C. for 15 minutes. The cells were washed once with the staining solution. • k) 100 μL of permeabilization buffer was added to each well, and the cells were permeabilized at 4° C. for 20 minutes. The cells were washed twice with the staining solution. • l) 50 μL of staining solution containing human pSTAT1 antibody was added to each well of the IL-6 and IFN-α-stimulated culture plates, and 50 μL of staining solution containing human pSTAT5 antibody was added to each well of the IL-2 and GM-CSF-stimulated culture plates. The staining was performed at room temperature for 15 minutes. The cells were washed twice with the staining solution. • m) The cells were resuspended in 150 μL of staining solution. • n) The fluorescence intensity of pSTAT1 (stimulated by IL-6 and IFN-α) or pSTAT5 (stimulated by IL-2) in CD4-positive cells was detected using flow cytometer. The fluorescence intensity of pSTAT5 (stimulated by GM-CSF) in CD33-positive cells was also detected.
Data analysis was performed using Flowjo software to determine the IC50 of the compounds.

Row | SMILES | pIC50 [1] | pIC50 [2] | pIC50 [3] | pIC50 [4]
1 | CNC(=O)c1nnc(NC(=O)C2CC2)cc1Nc1cccc(-c2ncc(S(=N)(=O)C(C)C)cn2)c1OC (single isomer, unassigned) [WX-011A] | 7.64 | 4.97 | 4.95 | 5.78
2 | CNC(=O)c1nnc(NC(=O)C2CC2)cc1Nc1cccc(-c2ncc(S(=N)(=O)C(C)C)cn2)c1OC (single isomer, unassigned) [WX-011B] |  |  |  | 5.87
3 | CNC(=O)c1cnc(NC(=O)C2CC2)cc1Nc1cccc(-c2ccc(S(=O)(=O)C(C)C)cn2)c1OC.Cl [Hydrochloride of WX-020] |  |  |  | 5.97
4 | CNC(=O)c1cnc(NC(=O)C2CC2)cc1Nc1cccc(-c2ncc(S(=O)(=O)C(C)C)cn2)c1OC [WX-019] | 7.53 | 4.47 | 4.47 | 5.84
5 | CNC(=O)c1cnc(NC(=O)C2CC2)cc1Nc1cccc(-c2ccc(S(=O)(=O)C(C)C)cn2)c1OC [WX-020] | 7.39 | < 4.00 | < 4.00 | 
6 | CNC(=O)c1nnc(NC(=O)C2CC2)cc1Nc1cccc(-c2ccc(P(=O)(C3CC3)C3CC3)cn2)c1OC [WX-021] |  |  |  | 6.24
